# Measurements as given in the supplement of paper PMC10307832.
# Columns and labels:
# Test in all cases: relative viability (nuclei count vs DMSO), 5 days (fraction); higher = more cells survive
# [1] = compound: NCC(=O)Nc1ccc(-n2nc(C(F)(F)F)cc2-c2ccc3c(ccc4ccccc43)c2)cc1 + Cc1nc(NC(=O)N2CCC[C@H]2C(N)=O)sc1-c1ccnc(C(C)(C)C(F)(F)F)c1 [Alpelisib] (partner 2 µM)
# How it was run: (§1)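 Cells from lung cancer lines were seeded into 1536-well plates and, one day later, dosed by pin tool. Treatments were either a single drug or a fixed dose of an anchor drug with five library-drug doses (not always all listed) in √10 steps. After 5 days, nuclei were stained in a one-step fixation (final 0.05% Triton X-100, 1% formaldehyde, 1 ug/ml Hoechst) and counted on 4× images, and relative viability is the treated-to-vehicle nuclei ratio, as the median of duplicate plates.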
# [2] = compound: C1CSC2=C(C(=O)N1)SC3=C2C=C(C=C3)O [kb NB 142-70] + CC1(C)CCC(c2ccc(Cl)cc2)=C(CN2CCN(c3ccc(C(=O)NS(=O)(=O)c4ccc(N[C@H](CCN5CCOCC5)CSc5ccccc5)c(S(=O)(=O)C(F)(F)F)c4)cc3)CC2)C1 [Navitoclax] (partner 0.5 µM)
# How it was run: as §1
# [3] = compound: NCC(=O)Nc1ccc(-n2nc(C(F)(F)F)cc2-c2ccc3c(ccc4ccccc43)c2)cc1 + N=C(N)NC(=N)NCCc1ccccc1 [Phenformin] (partner 250 µM)
# How it was run: as §1
# [4] = compound: C1CSC2=C(C(=O)N1)SC3=C2C=C(C=C3)O [kb NB 142-70] + C[C@]1(O)C[C@@H](c2nc(-c3ccc4ccc(-c5ccccc5)nc4c3)c3c(N)nccn32)C1 [Linsitinib] (partner 1 µM)
# How it was run: as §1
# [5] = compound: C1CSC2=C(C(=O)N1)SC3=C2C=C(C=C3)O [kb NB 142-70] + CC(=O)c1c(C)c2cnc(Nc3ccc(N4CCNCC4)cn3)nc2n(C2CCCC2)c1=O [Palbociclib] (partner 0.5 µM)
# How it was run: as §1
Cell Line,relative viability ([1]; first compound 0.02 µM),relative viability ([1]; first compound 0.06325 µM),relative viability ([1]; first compound 0.2 µM),relative viability ([1]; first compound 0.6325 µM),relative viability ([1]; first compound 2 µM),relative viability ([2]; first compound 0.1 µM),relative viability ([2]; first compound 1 µM),relative viability ([2]; first compound 3.162 µM),relative viability ([3]; first compound 0.02 µM),relative viability ([3]; first compound 0.06325 µM),relative viability ([3]; first compound 0.2 µM),relative viability ([3]; first compound 0.6325 µM),relative viability ([3]; first compound 2 µM),relative viability ([4]; first compound 0.1 µM),relative viability ([4]; first compound 1 µM),relative viability ([4]; first compound 3.162 µM),relative viability ([5]; first compound 0.1 µM),relative viability ([5]; first compound 1 µM),relative viability ([5]; first compound 3.162 µM)
201T,1.08,1.05,1.04,1,1.05,1.22,1.26,1.17,0.448,0.489,0.408,0.466,0.446,1.04,1.05,1.02,0.35,0.361,0.394
A549,0.714,0.84,0.898,0.747,0.657,1.27,1.08,0.142,0.0913,0.168,0.0781,0.198,0.17,0.551,0.524,0.499,–,–,–
A-427,1.05,1.09,1.14,1.14,1.05,1.03,1.07,0.962,–,0.411,0.315,0.334,0.352,1.04,1.12,1.01,0.505,0.555,0.507
ABC-1,0.955,0.88,–,1.06,1.14,–,–,–,0.248,0.233,–,0.225,0.245,0.976,0.984,0.683,0.425,0.83,0.534
BEN,1.04,1.06,1.1,1.05,1.06,0.0749,0.0596,0.0617,0.249,0.239,0.302,0.269,0.228,0.793,0.893,0.724,0.443,0.459,0.488
CAL-12T,1.2,1.27,1.34,1.03,1.03,1.34,1.16,1.08,0.572,0.601,0.586,0.576,0.627,0.859,0.869,1.03,0.48,0.363,0.188
COR-L23,0.895,0.822,0.898,0.722,0.745,0.941,1.08,0.324,0.394,0.434,0.439,0.44,0.417,0.953,0.901,0.303,0.324,0.317,0.186
COR-L 105,0.911,1.12,1.26,0.896,0.969,0.746,0.828,0.727,0.408,0.517,0.5,0.539,0.492,1.17,1,0.94,0.432,0.369,0.433
Calu-6,1.05,1.07,1.15,0.943,0.913,0.859,0.891,0.376,–,–,–,–,–,0.93,0.889,0.683,–,–,–
ChaGo-K-1,–,–,–,–,–,1.17,1.11,0.885,0.438,0.495,0.443,0.522,0.519,–,–,–,0.872,0.803,0.838
EBC-1,0.785,0.785,0.962,0.835,0.834,0.415,0.322,0.22,–,–,–,–,–,0.897,0.952,0.817,–,–,–
EKVX,0.939,0.809,0.924,0.927,1.01,0.883,1.01,0.87,0.228,0.273,0.218,0.236,0.219,0.969,1.01,1.04,0.361,0.393,0.37
EMC-BAC-2,0.742,0.75,0.764,0.772,0.715,1.16,1.28,1.27,0.472,0.488,0.549,0.56,0.541,0.805,0.798,0.747,0.524,0.553,0.516
EPLC-272H,1.06,0.916,0.917,1.05,0.936,1.26,1.13,0.584,0.289,0.366,0.261,0.324,0.294,1.07,1.05,0.599,0.324,0.329,0.28
H3255,0.782,0.651,0.746,0.811,0.731,0.498,0.538,0.55,0.343,0.341,0.364,0.334,0.435,0.824,0.984,0.905,0.323,0.314,0.316
HARA,0.859,0.958,0.844,0.831,0.867,1.15,1.11,1.08,0.479,0.407,0.456,0.441,0.53,1.05,0.975,0.631,0.216,0.327,0.259
HCC-15,0.879,0.9,0.889,0.956,0.865,0.683,0.683,0.609,0.438,0.497,0.476,0.497,0.506,0.86,0.89,0.697,0.699,0.699,0.588
HCC-44,0.752,0.832,0.817,0.709,0.785,1,1.16,1.09,0.308,0.252,0.25,0.202,0.284,0.689,0.716,0.658,0.96,1,1.03
HCC-78,0.361,0.422,0.376,0.306,0.397,0.752,0.742,0.652,0.758,0.691,0.713,0.649,0.714,0.491,0.569,0.467,0.446,0.443,0.412
HCC-366,0.32,0.432,0.489,0.435,0.322,1.03,1.13,0.823,0.589,0.649,0.595,0.625,0.596,0.658,0.462,0.214,0.404,0.477,0.356

Cell Line,relative viability ([1]; first compound 0.02 µM),relative viability ([1]; first compound 0.06325 µM),relative viability ([1]; first compound 0.2 µM),relative viability ([1]; first compound 0.6325 µM),relative viability ([1]; first compound 2 µM),relative viability ([2]; first compound 0.1 µM),relative viability ([2]; first compound 1 µM),relative viability ([2]; first compound 3.162 µM),relative viability ([3]; first compound 0.02 µM),relative viability ([3]; first compound 0.06325 µM),relative viability ([3]; first compound 0.2 µM),relative viability ([3]; first compound 0.6325 µM),relative viability ([3]; first compound 2 µM),relative viability ([4]; first compound 0.1 µM),relative viability ([4]; first compound 1 µM),relative viability ([4]; first compound 3.162 µM),relative viability ([5]; first compound 0.1 µM),relative viability ([5]; first compound 1 µM),relative viability ([5]; first compound 3.162 µM)
HCC-827,1.02,1.08,0.957,0.944,1.02,1.04,1.02,1.02,0.397,0.431,0.406,0.385,0.385,0.921,0.992,0.902,0.525,0.459,0.396
HOP-62,1.09,0.995,0.922,0.975,0.859,0.994,1.11,0.968,0.683,0.7,0.644,0.608,0.735,0.996,0.906,0.945,0.496,0.473,0.441
IA-LM,0.776,0.715,0.937,0.784,0.782,0.807,0.843,0.651,–,–,–,–,–,0.621,0.771,0.87,–,–,–
LC-2-ad,1.07,0.947,0.945,0.883,0.959,0.537,0.473,0.262,0.531,0.643,0.609,0.614,0.649,0.791,0.825,0.677,0.457,0.475,0.513
LCLC-97TM1,0.206,0.271,–,0.239,0.206,0.457,0.29,0.307,0.397,0.434,0.466,0.442,0.442,0.192,0.187,0.172,0.229,0.216,0.193
LCLC-103H,0.924,0.916,1.03,0.917,0.985,–,–,–,0.344,0.331,0.332,0.327,0.315,0.989,1.2,1.15,0.47,0.475,0.504
LK-2,1.04,1.04,0.979,1.14,0.969,0.879,0.723,0.464,0.31,0.638,0.425,0.496,0.435,0.751,0.384,0.245,0.661,0.476,0.352
NCI-H358,0.82,0.881,0.931,0.821,0.939,–,–,–,0.335,0.319,0.293,0.365,0.343,0.654,0.522,0.146,0.127,0.136,0.0896
NCI-H522,–,–,–,–,–,–,–,–,–,0.66,0.585,0.664,0.651,–,–,–,0.988,0.789,0.77
NCI-H596,0.63,0.5,0.483,0.553,0.505,1,0.982,0.866,0.72,0.877,0.841,0.721,0.728,1.13,1.02,0.837,–,–,–
NCI-H650,0.882,1.24,1.3,1.13,1.37,–,–,–,0.422,0.44,0.48,0.379,0.474,0.908,0.878,0.755,0.362,0.422,0.394
NCI-H661,0.82,0.626,0.693,0.758,0.94,–,–,–,0.267,0.259,0.268,0.295,0.27,0.561,0.607,0.602,0.379,0.363,0.342
NCI-H1299,1.05,1.11,1.09,1.08,1.03,1.07,1.13,1.1,–,–,–,–,–,1.07,1.07,1.14,–,–,–
NCI-H1563,0.969,0.837,0.962,0.928,1.05,–,–,–,0.606,0.664,0.658,0.633,0.712,1.19,1.19,1.28,–,–,–
NCI-H1648,–,–,–,–,–,–,–,–,–,–,–,–,–,–,–,–,0.276,0.275,0.206
NCI-H1650,–,–,–,–,–,1.25,1.24,0.89,0.426,0.49,–,0.515,0.449,–,–,–,0.362,0.39,0.321
NCI-H1703,0.377,0.306,0.343,0.353,0.385,1.04,1.05,0.93,–,–,–,–,–,0.975,0.625,0.823,–,–,–
NCI-H2170,0.782,0.716,0.823,0.886,0.88,0.564,0.674,0.432,0.397,0.446,0.429,0.438,0.457,–,–,–,0.413,0.44,0.392
NCI-H2342,–,–,–,–,–,–,–,–,0.685,0.582,0.733,0.515,0.537,–,–,–,0.547,0.497,0.589
SW 900,–,–,–,–,–,–,–,–,–,0.729,0.599,0.587,0.661,–,–,–,0.553,0.463,0.458
